The results in this text go back to patent publication US9603836B2, “Pyrrolidine-2, 5-dione derivatives, pharmaceutical compositions and methods for use as IDO1 inhibitors” (ITEOS THERAPEUTICS, priority 2014, dated 2017).

Where only a bound is given, the exact number is not on record here.

The test system of one assay is Kynurenine. As to the kind of experiment: In-vivo inhibition of blood kynurenine levels in healthy mice. The arrangement: species or system mouse. To be noted: two hours. As to the method: The compounds of the present invention reduce the amount of Kynurenine in healthy mouse blood.
Briefly, mice were treated with either a suspension of one of the compounds of the present invention in 0.5% hydroxypropyl methylcellulose (HPMC) K4M/0.25% Tween 20 at different doses, or with a vehicle control (0.5% HPMC K4M/0.25% Tween 20), by the oral route by gavage (dosing volume 5 mL/kg, 10 mice per group). After two hours, blood was harvested, plasma was prepared and the amount of Kynurenine present was determined by LC-MS-MS (HPLC column Unison UK-Phenyl, 75×4.6, 3 μm, flow rate 0.8 mL/min, 4 minutes gradient from water+0.2% acetic acid to methanol+0.1% formic acid, retention time 2.7 min; API4000™ MS-MS system from AB Sciex, ESI+ mode, parent ion 209.2, daughter ion 94.1).

The test system of a further assay is PancO2 tumors. As to the kind of experiment: In vivo efficacy in PancO2 pancreatic cancer syngeneic model. The arrangement: species or system C57/B16 mice. The note with it: PancO2, 100 mg/kg BID oral. The protocol: In vivo efficacy studies of the Compounds of the present invention were performed on PancO2 syngeneic tumor model of C57/B16 mice implanted subcutaneously. Five millions PancO2 pancreas cancer cells were implanted subcutaneously to 7 weeks old C57/B16 mice (day 0). Animals were randomized based on tumor size when tumor average reached 60 mm^3 (between day 10 and 12) into different treatment cohorts. The Compound was administered orally twice per day (approximately at 9 am and 5 pm) starting the day of randomization. The Compound was suspended into Methocel vehicle and sonicated before oral administration to animals using gavage needles. Treatment was administered daily until the end of the study. All experimental animals were monitored for body weight changes weekly. Tumor volume was measured weekly using a caliper device and calculated with the following formula: Tumor volume=0.5×(length×width^2). Studies were terminated before tumor volumes reached 2000 mm. TGI (% tumor growth inhibition) was determined as
Treatment was administered daily until the end of the study. Tumor volume was measured weekly using a caliper device and calculated with the following formula: Tumor volume=0.5×(length×width^2). Mice were considered as dead when tumor size reached 400 mm^3. […] SEM refers to standard error of measurement.

In assay [1] the target is T1, hIDO1 (Homo sapiens (Human), UniProt P14902). As to the kind of experiment: Assay for IDO1 enzymatic activity determination. To be noted: human recombinant IDO1 enzyme, L-Trp 100 μM. The class given is biochemical.
T1 sequence (P14902 whole entry): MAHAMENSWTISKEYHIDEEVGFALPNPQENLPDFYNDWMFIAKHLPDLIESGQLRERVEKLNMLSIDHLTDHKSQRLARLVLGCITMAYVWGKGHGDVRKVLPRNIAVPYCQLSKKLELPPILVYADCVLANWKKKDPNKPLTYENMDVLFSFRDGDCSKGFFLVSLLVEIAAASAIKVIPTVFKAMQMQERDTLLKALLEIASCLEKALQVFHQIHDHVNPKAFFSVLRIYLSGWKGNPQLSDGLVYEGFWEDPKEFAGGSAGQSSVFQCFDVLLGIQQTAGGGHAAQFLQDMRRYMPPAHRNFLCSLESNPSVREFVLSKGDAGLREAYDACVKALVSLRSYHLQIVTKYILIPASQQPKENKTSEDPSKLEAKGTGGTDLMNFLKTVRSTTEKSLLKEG
Description: To measure enzymatic activity of human IDO1, the reaction mixture contained (final concentrations) potassium phosphate buffer (50 mM, pH 6.5), ascorbic acid (10 mM), methylene blue (5 μM) and human recombinant IDO1 enzyme (prepared as described in Rohrig et al. J Med Chem, 2012, 55, 5270-5290; final concentration 5 μg/mL) without or with the compounds of the present invention at the indicated concentrations (total volume 112.5 μL). The reaction was initiated by the addition of 37.5 μL of L-Trp (final concentration 100 μM) at room temperature. The reaction was conducted at room temperature during 15 minutes and stopped by the addition of 30 μL of 30% (w/v) trichloroacetic acid.
To convert N-formylkynurenine into kynurenine, the reaction mixture was incubated at 65° C. for 30 min. Then 120 μL of 2.5% (w/v) 4-(dimethylamino)-benzaldehyde in acetic acid were added and the mixture incubated for 5 min at room temperature. Kynurenine concentrations were determined by measuring the absorbance at 480 nm. A standard curve was made with pure kynurenine. The IDO1 activity was measured as described above using ten serial concentrations of the compounds of the present invention. Data were fitted using the Prism software (GraphPad Software, Inc.).
Assay [2] has as its target T1, hIDO1. As to the kind of experiment: Cellular assay for IDO activity determination: hIDO1 P815 cells. The note with it: P815 cells overexpressing hIDO1, 24 hours. In kind it is cell-based. The protocol:
To determine IDO1 activity, the cells were incubated 24 hours at 37° C. at 5% CO2 in IMDM (Invitrogen) supplemented with 2% FBS and 2% penicillin/streptomycin in the presence of the compounds of the present invention, at different concentrations.
The plates were then centrifuged 5 min at 1000 rpm, and 100 μL of the supernatant were collected in a conical plate, 30 uL of TCA 30% were added and a further centrifugated at 3000×g for 10 minutes. 100 μL of the supernatant were collected in a flat bottomed plate and 100 μL of 2% (w/v) 4-(dimethylamino)-benzaldehyde in acetic acid and incubated for 5 min at room temperature. […] A standard curve was made with pure kynurenine.

The target in assay [3] is T1, hIDO1. As to the kind of experiment: Cellular assay for IDO1 activity determination: HeLa cells. In kind it is cell-based. The note with it: HeLa cells stimulated with IFNγ. The protocol:
The assay was performed in 96-well flat bottom plates seeded with the human cervical cancer HeLa cell line with stimulation with IFN.
To adhere HeLa cells (concentration of 5×10^3 cells/well) were incubated overnight at 37° C. at 5% CO2 in EMEM (Lonza) supplemented with 10% FBS, 2% penicillin/streptomycin and 2 mM Ultraglutamin, in a final volume of 200 μL.
To stimulate the expression of IDO1, cells were then incubated two days at 37° C. at 5% CO2 in EMEM (Lonza) supplemented with 2% FBS, 2% penicillin/streptomycin and 2 mM Ultraglutamine and 100 ng/mL IFNγ (R&D).
To determine IDO1 activity, medium was removed then the cells were incubated one day at 37° C. at 5% CO2 in EMEM (Lonza) supplemented with 2% FBS and 2% penicillin/streptomycin in the presence of the compounds of the present invention, at different concentrations. Then 100 μL of the supernatant were collected in a conical plate, 30 uL of TCA 30% were added and a centrifugation was made at 3000×g for 10 minutes. 100 μL of the supernatant were collected in a flat bottom plate and 100 μL of 2% (w/v) 4-(dimethylamino)-benzaldehyde in acetic acid and incubated for 5 min at room temperature. […] A standard curve was made with pure kynurenine.

As for `O=C1C[C@H](c2c[nH]c3ccc(F)cc23)C(=O)N1` [Compound 2, (−)-(R)-3-(5-fluoro-1H-indol-3-yl)pyrrolidine-2,5-dione], the “Kynurenine concentration in plasma (average ± standard error of the mean)” value in the assay on Kynurenine (10 mg/kg oral) was determined as 122 ± 3.5 ng/mL; in the assay with Kynurenine (30 mg/kg oral) it was 91.0 ± 4.4 ng/mL; with Kynurenine (100 mg/kg oral) it was 64.0 ± 3.8 ng/mL. For the same compound, the “inhibition of circulating Kynurenine” value was 39% in the assay with Kynurenine (10 mg/kg oral), 55% in the assay on Kynurenine (30 mg/kg oral) and 68% in the assay with Kynurenine (100 mg/kg oral). The “Mean tumor volume +/− SEM on day 55” value in the assay on PancO2 tumors is given as 586.6 +/− 48.4 mm^3. Moreover, the “TGI +/− SEM (Tumor growth inhibition)” value with PancO2 tumors (day 55) stood at 16.8% +/− 8.2.
What is called IC50 is the midpoint of a concentration-inhibition curve. Take `O=C1CC(c2c[nH]c3ccccc23)C(=O)N1` (stereo not drawn) [Compound 3, 3-(1H-indol-3-yl)pyrrolidine-2,5-dione]: the results for the IC50 on hIDO1 [1] and against hIDO1 [2] were 3 µM and 0.92 µM, respectively.
Regarding `O=C1C[C@H](c2c[nH]c3ccccc23)C(=O)N1` [Compound 4, (−)-(R)-3-(1H-indol-3-yl)pyrrolidine-2,5-dione], the IC50 at hIDO1 [1] was 1.8 µM; against hIDO1 [2] it was 0.24 µM.
The matching figures for `O=C1C[C@@H](c2c[nH]c3ccccc23)C(=O)N1` [Compound 4a, (+)-(S)-3-(1H-indol-3-yl)pyrrolidine-2,5-dione]: more than 50 µM and 3.3 µM.
The matching figures for `O=C1CC(c2c[nH]c3ccc(Cl)cc23)C(=O)N1` (stereo not drawn) [Compound 5, 3-(5-chloro-1H-indol-3-yl)pyrrolidine-2,5-dione]: 2.1 µM and 0.59 µM.
Regarding `O=C1C[C@H](c2c[nH]c3ccc(Cl)cc23)C(=O)N1` [Compound 6, (−)-(R)-3-(5-chloro-1H-indol-3-yl)pyrrolidine-2,5-dione], the results for the IC50 at hIDO1 [1] and at hIDO1 [3] were 2.2 µM and 3.4 µM, respectively.
For the compound `O=C1C[C@@H](c2c[nH]c3ccc(Cl)cc23)C(=O)N1` [Compound 6a, (+)-(S)-3-(5-chloro-1H-indol-3-yl)pyrrolidine-2,5-dione], the IC50 at hIDO1 [1] was more than 50 µM.
In the case of `O=C1CC(c2c[nH]c3cc(Cl)c(F)cc23)C(=O)N1` (stereo not drawn) [Compound 7, 3-(6-chloro-5-fluoro-1H-indol-3-yl)pyrrolidine-2,5-dione], on hIDO1 [1], the IC50 turned out to be 0.49 µM.
As to `O=C1C[C@H](c2c[nH]c3cc(Cl)c(F)cc23)C(=O)N1` [Compound 8, (R)-3-(6-chloro-5-fluoro-1H-indol-3-yl)pyrrolidine-2,5-dione], the IC50 against hIDO1 [3] amounted to 3.6 µM.
On to `O=C1CC(c2c[nH]c3cc(Br)c(F)cc23)C(=O)N1` (stereo not drawn) [Compound 9, 3-(6-bromo-5-fluoro-1H-indol-3-yl)pyrrolidine-2,5-dione], for which the values for the IC50 at hIDO1 [1] and against hIDO1 [3] were 0.29 µM and 7 µM, respectively.
For the compound `O=C1C[C@H](c2c[nH]c3cc(Br)c(F)cc23)C(=O)N1` [Compound 10, (R)-3-(6-bromo-5-fluoro-1H-indol-3-yl)pyrrolidine-2,5-dione], the IC50 at hIDO1 [1] worked out at 0.62 µM.
In the case of `O=C1C[C@@H](c2c[nH]c3cc(Br)c(F)cc23)C(=O)N1` [Compound 10a, (S)-3-(6-bromo-5-fluoro-1H-indol-3-yl)pyrrolidine-2,5-dione], the IC50 at hIDO1 [1] amounted to 8 µM.
Consider `O=C1CC(c2c[nH]c3ccc(Br)cc23)C(=O)N1` (stereo not drawn) [Compound 11, 3-(5-bromo-1H-indol-3-yl)pyrrolidine-2,5-dione], for which the IC50 was determined as 0.37 µM on hIDO1 [1] and 5.9 µM on hIDO1 [3].
Consider `Cc1ccc2[nH]cc(C3CC(=O)NC3=O)c2c1` (stereo not drawn) [Compound 12, 3-(5-methyl-1H-indol-3-yl)pyrrolidine-2,5-dione], for which, at hIDO1 [1], the IC50 came out at 53 µM.
On to `COc1ccc2[nH]cc(C3CC(=O)NC3=O)c2c1` (stereo not drawn) [Compound 13, 3-(5-methoxy-1H-indol-3-yl)pyrrolidine-2,5-dione], for which the concentration for half-maximal inhibition (IC50) on hIDO1 [1] stood at 53 µM.
Same read-out and setting: the same measure for `N#Cc1ccc2[nH]cc(C3CC(=O)NC3=O)c2c1` (stereo not drawn) [Compound 14, 3-(2,5-dioxopyrrolidin-3-yl)-1H-indole-5-carbonitrile]: 12 µM.
Consider `O=C1CC(c2c[nH]c3cc(F)c(F)cc23)C(=O)N1` (stereo not drawn) [Compound 15, 3-(5,6-difluoro-1H-indol-3-yl)pyrrolidine-2,5-dione], for which the concentration for half-maximal inhibition (IC50) on hIDO1 [1] was 1.8 µM; against hIDO1 [2], 0.26 µM.
Regarding `Cc1cc2[nH]cc(C3CC(=O)NC3=O)c2cc1F` (stereo not drawn) [Compound 16, 3-(5-fluoro-6-methyl-1H-indol-3-yl)pyrrolidine-2,5-dione], the half-inhibitory concentration (IC50) at hIDO1 [1] is 46 µM.
Same read-out and setting: as for `O=C1CC(c2c[nH]c3cc(F)ccc23)C(=O)N1` (stereo not drawn) [Compound 17, 3-(6-fluoro-1H-indol-3-yl)pyrrolidine-2,5-dione], the figure is 3.4 µM.
Take `O=C1CC(c2c[nH]c3cc(Cl)ccc23)C(=O)N1` (stereo not drawn) [Compound 18, 3-(6-chloro-1H-indol-3-yl)pyrrolidine-2,5-dione]: the figures for the IC50 at hIDO1 [1] and at hIDO1 [2] were 2.1 µM and 0.5 µM, respectively.
With `O=C1CC(c2c[nH]c3cc(Br)ccc23)C(=O)N1` (stereo not drawn) [Compound 19, 3-(6-bromo-1H-indol-3-yl)pyrrolidine-2,5-dione], on hIDO1 [1], the IC50 came out at 0.42 µM.
`Cc1ccc2c(C3CC(=O)NC3=O)c[nH]c2c1` (stereo not drawn) [Compound 20, 3-(6-methyl-1H-indol-3-yl)pyrrolidine-2,5-dione]: the IC50 at hIDO1 [1] is 54 µM.
With `N#Cc1ccc2c(C3CC(=O)NC3=O)c[nH]c2c1` (stereo not drawn) [Compound 22, 3-(2,5-dioxopyrrolidin-3-yl)-1H-indole-6-carbonitrile], the IC50 at hIDO1 [1] is 1.7 µM.
As for `O=C1CC(c2cccc3ccccc23)C(=O)N1` (stereo not drawn) [Compound 23, 3-(naphthalen-1-yl)pyrrolidine-2,5-dione], the half-maximal inhibitory concentration (IC50) at hIDO1 [1] was determined as 18 µM.
On to `O=C1CC(c2cccc3cc(F)ccc23)C(=O)N1` (stereo not drawn) [Compound 24, 3-(6-fluoronaphthalen-1-yl)pyrrolidine-2,5-dione], for which the IC50 on hIDO1 [1] amounted to 1.7 µM.
As for `O=C1CC(c2cccc3ccc(F)cc23)C(=O)N1` (stereo not drawn) [Compound 25, 3-(7-fluoronaphthalen-1-yl)pyrrolidine-2,5-dione], at hIDO1 [1], the IC50 was 4.6 µM.
